Patent US20250275993A1, “GLYCOSYLATION INHIBITORS AS THERAPEUTICS FOR STROKE” (The Regents of the University of California, priority 2022, published 2025)

Assays:
O-glycan of BCEC lysates = assay: O-glycan analysis in BCEC lysates (MALDI-Tof); type: cell-based, bovine; settings: 40 μM ManN
Description: For O-glycan analysis, homogenized cell samples were treated with 50 mM NaOH in presence of 1M NaBH4 for 16 hrs at 45° C. The reaction mixture was neutralized using ice-cold 30% acetic acid slowly. The neutralized reaction mixture was then passed over Dowex 50-X cation exchange resin to remove sodium ion and lyophilized. Excess boric acid generated during neutralization was then removed by co-evaporation using acidified methanol and methanol respectively. Finally the O-glycan was purified by passing over C18 cartridge. Dried and purified O-glycan was then methylated and used for O-glycan analysis after permethylation. Permethylated samples were then dissolved in absolute methanol and mixed with SDHB (Super-DHB) MALDI matrix in 1:1 v/v ratio and spotted on maldi plate. Mass spectral data was acquired using Bruker AutoFlex mass spectrometer at positive, reflectron mode. The mass spectral data were analyzed and annotated using GlycoWork Bench software and masses matched with the proposed structures were annotated. The mono-isotopic ion intensities are taken for calculation.

[1] = system: bovine retinal microvascular endothelial cells (BREC); assay: BREC proliferation assay; type: cell-based; settings: bovine retinal EC
Description: Proliferation assays with BCECs and BRECs were performed. Log-phase growing BCECs or BRECs (passage <10) were trypsinized, re-suspended and seeded in 96-well plates (no coating) in low-glucose DMEM supplemented with 10% bovine calf serum, 2 mM glutamine, and antibiotics (growth medium), at a density of 1200-1500 cells per well in 200 μl volume. All reagents were added at the indicated final concentrations. After 3-6 days, cells were incubated with AlamarBlue for 4 hrs. Fluorescence was measured at 530 nm excitation wavelength and 590 nm emission wavelength. The experiments were repeated at least three times. To create a hypoxic condition, cells were placed in a hypoxia incubator with a mixture of gas consisting of 1% O2, 5% CO2 and 94% N2. On each 96-well plate, untreated and VEGF-treated (10/ng/ml) wells were included to monitor plate-to-plate variations. 20% methanol or 0.05% DMSO served as negative controls. […] Human RMVECs and human adult DMVECs were split into Gelatin-coated 96 wells (2000 cells per well) in low glucose DMEM containing 10% FBS. 1200 cells/well was set up for proliferation assay in low glucose media containing 0.5% FBS. Data was collected at day 4 or 5. HUVEC (p7-10) were grown on gelatin-coated plate until it reached 70-80% confluency.

human dermal fibroblasts = assay: Human dermal fibroblast proliferation assay; type: cell-based; settings: alone or in combination with growth factors
Description: (§1) Proliferation assays with fibroblasts were done in low-glucose DMEM containing 1% FBS, with or without 10 ng/ml bFGF, or 100 ng/ml human EGF and the assay was ended at day 3. ARPE-19 cells were gently lifted with 0.025% trypsin and plated in RtEGM media (Clonetics) containing 2% FBS, L-glutamine, human bFGF and GA-1000. Once cells were attached to plates, serum-free RtEGM media was used to maintain the cultures. For proliferation assays, 1500 human RPE cells were plated into 96-well plates in low-glucose DMEM containing 1% FBS. A673, U87MG, Calu6 and AML12 cells were grown until confluent and were then harvested and re-suspended in appropriate assay media. For proliferation assays, cells were plated at the density of 1000-2000 cells/well in low-glucose DMEM containing 5% FBS or otherwise stated. Bovine pituitary cells (pituitary folliculostellate cells) were isolated as previously described. For proliferation assays with human epidermal keratinocytes, human DMVECs and human dermal fibroblast cells, 1000 cells/well were plated in low-glucose DMEM containing 1% FBS with or without various growth factors. The assay was ended at day 3 for bovine pituitary cells and at day 4 for all the other cell types. […] Four days later, tumor cell growth was measured by the MTS assay (Promega, Madison, WI), a colorimetric assay that measures metabolic activity of viable cells. […]

β-Glucosidase = assay: β-glucosidase activity assay; type: biochemical, almond; settings: up to 2 mM
Description: a-mannosidase activity was measured using substrate p-nitrophenyl α-mannopyranoside (1 mM). Enzyme from Jack Bean (M7257) (final concentration of 0.077 U) was incubated at 37° C. in a final volume of 50 μl of 50 mM potassium phosphate buffer, pH 7.5. α-glucosidase was assayed with substrate p-nitrophenyl a-glucoside (7 mM). Enzyme from Saccharomyces cerevisiae-type 1 (Sigma, G5003) (final concentration of 0.1 U) was incubated at 37° C. in a final volume of 50 μl of PBS, pH 7.5. β-Glucosidase was assayed with substrate 4-nitrophenyl β-D-glucopyranoside (Roche). Enzyme from almond (Sigma, G0395) (final concentration of 0.002 U) was incubated at 37° C. in a final volume of 50 μl of PBS, pH 7.5 […]. The incubation was stopped by addition of an equal volume of acid-based stop solution (R&D systems, 895032). Enzymatic activity was measured at 405 nm. α-glucosidase from Saccharomyces cerevisiae type I (G5003) with p-nitrophenyl α-D-glucopyranoside (Sigma, N1377) as the substrate.

BCECs = assay: Cellular uptake of ManN and conversion to ManN-6P (HPAEC-PAD); type: in vitro ADME, bovine
[2] = system: complex N-glycans of BCECs; assay: Monosaccharide and sialic acid composition analysis of BCECs; type: cell-based, bovine; settings: fucose 8 hours, mannose 12 hours, galactose 24 hours, Neu5Ac 8 and 24 hours
Description: Monosaccharide composition analysis was done using HPAEC-PAD (Thermo-Dionex ICS3000) and nmole amount of each monosaccharide present in 25 μg of protein was calculated. Samples were hydrolyzed using 2 N trifluoroacetic acid (TFA) at 100° C. for 4 hrs. Followed by removal of acid using dry nitrogen flush. To ensure complete removal of acid, samples were co-evaporated twice with 100 μl of 50% isopropyl alcohol (IPA). Finally, the samples were dissolved in Milli-Q water and injected on HPAEC-PAD. Monosaccharide profile was done using Dionex CarboPac PAI column (250 mm×4 mm; with 50 mm×4 mm guard column). An isocratic solvent mixture of 19 mM sodium hydroxide with 0.95 mM sodium acetate was used at a flow rate of 1 ml per minute for 25 mins. Data were acquired using manufacture supplied standard Quad waveform for carbohydrates. All neutral and amino sugars were identified and quantified by comparing with authentic monosaccharide standard mixture consisting of L-fucose, D-galactosamine, D-glucosamine, D-galactose, D-glucose and D-mannosc. Mild acid hydrolysis was used to release sialic acid. Briefly, samples were treated with 2 M acetic acid at 80° C. for 3 hrs followed by removal of excess acid using speed vacuum. […] Known amount of standard Neu5Ac was used to quantify amount of sialic acid in samples.

A673 = A673 proliferation assay; type: cell-based; settings: ManN
Description: as §1

N[C@H](C=O)[C@@H](O)[C@H](O)[C@H](O)CO [ManN, 2-Amino-2-deoxy-D-mannose]
O-glycosylation (O-glycan of BCEC lysates): overall decrease in O-glycosylation
additive effects in promoting BREC proliferation [1]: Additive effects
proliferation of human dermal fibroblasts (human dermal fibroblasts): no increases in proliferation
effect on β-glucosidase (β-Glucosidase): No effect
incorporation of ManN in N-glycans (BCECs; BCECs): No incorporation
ManN detected in cell lysate (BCECs; BCECs treated with 400 μM ManN for 2 hours): 0.66 nmol in 1 mg cell lysate
fucose, mannose, galactose and Neu5Ac content [2]: significant decrease
growth of A673 (A673): did not promote growth
